Test results reported in patent publication US20260373165A1, “PHARMACEUTICAL COMBINATIONS AND COMPOSITIONS, AND METHODS OF USE THEREOF” (SHENZHEN HIGHTIDE BIOPHARMACEUTICAL LTD., priority 2022, published 2026).

How the values were obtained:
Format in all cases: in vivo, mouse (C57BL/6J male, 60% HFD DIO)
[1] = Example 1: fasting blood glucose level; conditions: semaglutide 10 nmol/kg s.c. Q3D
Excerpt: (§1) After 5-week-old C57BL/6J male mice were acclimatized for 1 week, the weight of each mouse was weighed, and the mice were randomly divided into a control group and a model group by taking the weight as a main index, where 12 mice in the control group were fed with common feed (CD), and the mice in the remaining model group were fed with 60% high-fat feed (60% HFD) for 10-12 weeks to construct a DIO obesity model, with the average body weight being not less than 40 g. The mice fed with 60% HFD were grabbed and acclimatized with a solvent for 3 days, where the acclimatization with a solvent was performed by oral gavage of 0.5% CMC-Na, twice daily.
(§2) The food intake, the body weight, the body fat ratio, and the insulin level of the mice were respectively measured, followed by fasting blood glucose level, and the mice were randomly grouped according to Table 3 by taking the body weight as an index, and the remaining ungrouped mice were euthanized. After grouping, each group of mice was administered according to Table 3, the day of administration was defined as DO, and the administration volume of each drug was determined based on the results obtained by the calculation of 5 μL/g× mouse body weight (g).
For the combined administration group, the total administration volume was the sum of the administration volumes of two single drugs, and the administration sequence and the administration time were kept consistent at each administration. The mice were continuously fed with high-fat feed during the administration period until the administration was finished. […]
After 20 days of administration, fasting blood glucose level results were measured for each group of animals and are shown in Table 8 below and FIG. 11.

[2] = Example 1: body fat mass by MRI after 25 days
Excerpt: as §1, §2
(§3) For the combined administration group, the total administration volume was the sum of the administration volumes of two single drugs, and the administration sequence and the administration time were kept consistent at each administration. The mice were continuously fed with high-fat feed during the administration period until the administration was finished. During administration, 2 food intakes were measured per week (difference in feed weights at an interval of 24 h was measured); each group of mice was weighed once daily; postprandial blood glucose levels were measured weekly; blood was collected from the tail tip on day 6 and day 20, respectively, so as to measure fasting blood glucose levels once (blood was collected after fasting from 8:00 am to […]); on day 25 of administration, the body fat ratio and the lean mass of each group of mice were measured by MRI (the measurement period was kept consistent with that before grouping); after 4 weeks of administration intervention (day 28), each group of mice was fasted for 6 h and subjected to OGTT (0 min, 15 min, 30 min, 60 min, 90 min, 120 min) to detect their blood glucose levels, and meanwhile subjected to blood sampling via submaxillary vein (0 min, 15 min, 30 min, about 30 μL of blood sampled each time), and then the blood plasma was separated for detecting the insulin level by ELISA, where the separated blood plasma was more than 10 μL; the next day (D29) at the end of administration was set as the test endpoint, and the mice were fasted for 6 h in the morning and subjected to fasting blood glucose level measurement; subsequently, the mice were euthanized with CO2, blood was collected from the heart of each mouse for analysis, and each group of mice was dissected; the liver and subcutaneous, epididymal and mesenteric fat was collected, photographed and weighed, respectively.
After 25 days of administration, the body weight, the body fat mass and the body fat ratio of each animal in groups G1 to G6 were measured and averaged for each group, and the results are shown in Table 5 below, FIG. 4 and FIG. 5.

[3] = Example 1: lean mass by MRI after 25 days
Excerpt: as §1, §2, §3
After 25 days of administration, the body weight, the Lean weight and the lean ratio of each animal in groups G1 to G5 were measured and averaged for each group, and the results are shown in Table 7 below, FIG. 9 and FIG. 10.

[4] = Example 1: liver, abdominal and subcutaneous fat weight after 28 days; conditions: mean, HTD1801 200 mpk, empagliflozin 10 mpk in last 2 weeks (300/15 mpk before)
Excerpt: as §1, §2, §3
After 28 days of administration, the mice were euthanized with CO2 the next day, and the mice of groups G1 to G5 were dissected, and liver and abdominal fat (including epididymis and mesentery), and subcutaneous fat were collected, photographed and weighed, respectively, and the results are shown in Table 6 below, FIG. 6, FIG. 7, and FIG. 8.

[5] = Example 1: body weight and body weight change rate, combined administration of HTD1801 and empagliflozin in DIO obesity model; conditions: semaglutide 10 nmol/kg s.c. Q3D
Excerpt: as §1, §2, §3

[6] = day 6, HTD1801 300 mpk, empagliflozin 15 mpk gavage QD
[7] = mean, after 25 days of administration, HTD1801 200 mpk, empagliflozin 10 mpk in last 2 weeks (300/15 mpk before), semaglutide 10 nmol/kg s.c. Q3D
[8] = mean, after 25 days of administration, HTD1801 200 mpk, empagliflozin 10 mpk in last 2 weeks (300/15 mpk before)
[9] = day 0 (baseline), HTD1801 300 mpk, empagliflozin 15 mpk gavage QD
[10] = day 1, HTD1801 300 mpk, empagliflozin 15 mpk gavage QD
[11] = day 2, HTD1801 300 mpk, empagliflozin 15 mpk gavage QD
[12] = day 3, HTD1801 300 mpk, empagliflozin 15 mpk gavage QD
[13] = day 4, HTD1801 300 mpk, empagliflozin 15 mpk gavage QD
[14] = day 5, HTD1801 300 mpk, empagliflozin 15 mpk gavage QD
[15] = day 7, HTD1801 300 mpk, empagliflozin 15 mpk gavage QD
[16] = day 8, HTD1801 300 mpk, empagliflozin 15 mpk gavage QD
[17] = day 9, HTD1801 300 mpk, empagliflozin 15 mpk gavage QD
[18] = day 10, HTD1801 300 mpk, empagliflozin 15 mpk gavage QD
[19] = day 11, HTD1801 300 mpk, empagliflozin 15 mpk gavage QD
[20] = day 12, HTD1801 300 mpk, empagliflozin 15 mpk gavage QD
[21] = day 13, HTD1801 300 mpk, empagliflozin 15 mpk gavage QD
[22] = day 14, HTD1801 300 mpk, empagliflozin 15 mpk gavage QD
[23] = day 15, HTD1801 200 mpk, empagliflozin 10 mpk (reduced after week 2) gavage QD
[24] = day 16, HTD1801 200 mpk, empagliflozin 10 mpk (reduced after week 2) gavage QD
[25] = day 17, HTD1801 200 mpk, empagliflozin 10 mpk (reduced after week 2) gavage QD
[26] = day 18, HTD1801 200 mpk, empagliflozin 10 mpk (reduced after week 2) gavage QD
[27] = day 19, HTD1801 200 mpk, empagliflozin 10 mpk (reduced after week 2) gavage QD
[28] = day 20, HTD1801 200 mpk, empagliflozin 10 mpk (reduced after week 2) gavage QD
[29] = day 21, HTD1801 200 mpk, empagliflozin 10 mpk (reduced after week 2) gavage QD
[30] = day 22, HTD1801 200 mpk, empagliflozin 10 mpk (reduced after week 2) gavage QD
[31] = day 23, HTD1801 200 mpk, empagliflozin 10 mpk (reduced after week 2) gavage QD
[32] = day 24, HTD1801 200 mpk, empagliflozin 10 mpk (reduced after week 2) gavage QD
[33] = day 25, HTD1801 200 mpk, empagliflozin 10 mpk (reduced after week 2) gavage QD
[34] = day 26, HTD1801 200 mpk, empagliflozin 10 mpk (reduced after week 2) gavage QD
[35] = day 27, HTD1801 200 mpk, empagliflozin 10 mpk (reduced after week 2) gavage QD
[36] = day 28, HTD1801 200 mpk, empagliflozin 10 mpk (reduced after week 2) gavage QD

COc1ccc2cc3[n+](cc2c1OC)CCc1cc2c(cc1-3)OCO2.C[C@H](CCC(=O)[O-])[C@H]1CC[C@H]2[C@@H]3[C@@H](O)C[C@@H]4C[C@H](O)CC[C@]4(C)[C@H]3CC[C@]12C [HTD1801, berberine ursodeoxycholate]
Mean fasting blood glucose level [1, 6]: 7.9 mmol/L | Mean fasting blood glucose level ([1]; day 20, HTD1801 200 mpk, empagliflozin 10 mpk (reduced after week 2)): 8.4 mmol/L | body fat mass and body fat ratio (in words) ([2]; after 25 days, relative to control group G2): decreased | Body weight ([2]; mean, after 25 days of administration (Table 5), HTD1801 200 mpk, empagliflozin 10 mpk in last 2 weeks (300/15 mpk before), semaglutide 10 nmol/kg s.c. Q3D): 40.10 g | Body fat ratio [2, 7]: 40.12% | Fat (body fat mass) [2, 7]: 16.23 g | lean mass (in words) ([3]; after 25 days, relative to model control group G2): increased | Body weight ([3]; mean, after 25 days of administration (Table 7), HTD1801 200 mpk, empagliflozin 10 mpk in last 2 weeks (300/15 mpk before)): 40.10 g | Lean (lean mass) [3, 8]: 7.50 g | Lean ratio [3, 8]: 19.02% | Epididymal fat weight [4]: 2.31 g | Liver weight [4]: 0.98 g | Mesenteric fat weight [4]: 0.78 g | Subcutaneous fat weight [4]: 2.32 g | body weight change (in words) ([5]; after 14 days, reduced dose: HTD1801 200 mpk, empagliflozin 10 mpk): slight rebound | Body weight (mean) [5, 9]: 43.6 g | Body weight change rate [5, 9]: 0.0% | Body weight (mean) [5, 10]: 42.9 g | Body weight change rate [5, 10]: −1.6% | Body weight (mean) [5, 11]: 43.1 g | Body weight change rate [5, 11]: −1.2% | Body weight (mean) [5, 12]: 42.3 g | Body weight change rate [5, 12]: −3.0% | Body weight (mean) [5, 13]: 42.3 g | Body weight change rate [5, 13]: −2.9% | Body weight (mean) [5, 14]: 42.5 g | Body weight change rate [5, 14]: −2.6% | Body weight (mean) [5, 6]: 42.0 g | Body weight change rate [5, 6]: −3.8% | Body weight (mean) [5, 15]: 41.5 g | Body weight change rate [5, 15]: −4.9% | Body weight (mean) [5, 16]: 40.8 g | Body weight change rate [5, 16]: −6.2% | Body weight (mean) [5, 17]: 40.7 g | Body weight change rate [5, 17]: −6.6% | Body weight (mean) [5, 18]: 40.7 g | Body weight change rate [5, 18]: −6.5% | Body weight (mean) [5, 19]: 40.6 g | Body weight change rate [5, 19]: −6.8% | Body weight (mean) [5, 20]: 40.8 g | Body weight change rate [5, 20]: −6.3% | Body weight (mean) [5, 21]: 40.4 g | Body weight change rate [5, 21]: −7.1% | Body weight (mean) [5, 22]: 39.7 g | Body weight change rate [5, 22]: −8.7% | Body weight (mean) [5, 23]: 39.5 g | Body weight change rate [5, 23]: −9.0% | Body weight (mean) [5, 24]: 39.6 g | Body weight change rate [5, 24]: −8.8% | Body weight (mean) [5, 25]: 39.4 g | Body weight change rate [5, 25]: −9.3% | Body weight (mean) [5, 26]: 38.9 g | Body weight change rate [5, 26]: −10.3% | Body weight (mean) [5, 27]: 38.9 g | Body weight change rate [5, 27]: −10.3% | Body weight (mean) [5, 28]: 39.2 g | Body weight change rate [5, 28]: −8.4% | Body weight (mean) [5, 29]: 39.5 g | Body weight change rate [5, 29]: −7.8% | Body weight (mean) [5, 30]: 39.7 g | Body weight change rate [5, 30]: −7.2% | Body weight (mean) [5, 31]: 40.2 g | Body weight change rate [5, 31]: −6.0% | Body weight (mean) [5, 32]: 40.5 g | Body weight change rate [5, 32]: −5.4% | Body weight (mean) [5, 33]: 40.7 g | Body weight change rate [5, 33]: −4.8% | Body weight (mean) [5, 34]: 40.1 g | Body weight change rate [5, 34]: −6.5% | Body weight (mean) [5, 35]: 40.2 g | Body weight change rate [5, 35]: −6.2% | Body weight (mean) [5, 36]: 39.5 g | Body weight change rate [5, 36]: −7.9% | body weight change / weight loss effect (in words) ([5]; within 14 days, HTD1801 300 mpk, empagliflozin 15 mpk gavage QD): continuously decreased over time
